Test [1] in a line: DPPH (α,α-diphenyl-β-picrylhydrazyl) free radical test. The conditions noted are these: 20 min, 30° C., absorbance 517 nm. The test is classed as biochemical. As to the method: DPPH is a stable free radical that when dissolved in solution forms an intense purple color. […] The extent to which the color fades can be easily measured and used to rank the relative effectiveness of different materials purported to have antioxidant properties.
Measurements were recorded for antioxidant raw materials in simple methanol solutions. Samples were prepared by dissolving antioxidants at various concentrations in methanol. After sample preparation, 125 μl of the sample or pure methanol as a control were pipetted into sample test tubes followed by 2 ml of methanol and vortexed. Then 2 ml of DPPH stock solution (0.25 mM in methanol) was added to each tube (giving a total volume of 4.125 ml for each sample) and vortexed. Immediately after addition of DPPH, test tubes were covered and placed into a 30° C. water bath for 20 minutes. After the 20 minute incubation, the absorbance of each sample was recorded at 517 nm using a Perkin Elmer Lambda 40 spectrophotometer. All samples were prepared in triplicate and their mean absorbance values were used to express the efficacy of antioxidants at various concentrations in terms of antioxidant reducing units (ARU) by using the following equation: ARU=(Absorbance Methanol Control−Absorbance sample)×10 ARU values range in magnitude from 0 for “no” efficacy to about 15 for raw materials that have high antioxidant efficacy.
(In general: DPPH is a stable violet radical that fades when it is reduced.)

Test [2] deals with human skin lipids. The experiment in a line: Ex vivo tape strip method: inhibition of UVR-induced lipid peroxidation (LOOH). The format is biochemical. To be noted: for % Inhibition of LOOH: tape strips irradiated 10 joules/cm^2 UVR, vs placebo lotion. The source says: To determine if antioxidants (Aox) maintain their effectiveness on skin in the presence of UVR, we devised a novel and more relevant model that utilizes human skin lipids as substrates for UVR-induced peroxidation. Lipids removed from skin on broad pieces of tape serve as the substrates for subsequent exposure to UVR. By applying a standard lotion with or without Aox to skin prior to tape-stripping, skin lipids can be collected on tape strips in the presence or absence of Aox that essentially maintains the same proximity that lipids and Aox had on skin. Following UVR exposure, the extent to which the presence of Aox protect lipids against peroxidation from ROS can be measured relative to lipids in the absence of antioxidants.
Human volunteers were recruited for the test and asked not to apply any products to their arms for at least two days before the test Prior to any product treatments, inner aspects of subjects' left and right forearms were wiped with a Kimwipe™ moistened with isopropanol to remove any residues that might be on the surface of the skin. Arms were wiped only once applying gentle pressure and then allowed to dry at least 10 minutes before proceeding. A template (90 mm×50 mm) was positioned on each inner forearm such that two areas could be clearly delineated. Using a superfine tip Sharpie™ pen, a mark was placed at each corner of the template to outline each application site, with two sites delineated per forearm. Using a fingercot, either placebo or antioxidant lotion was applied (100 mg) to a delineated site on a forearm. Care was taken to insure that products were applied evenly within the entire application area. After application, sites were allowed to air-dry for 30 minutes during which subjects were instructed not to allow any clothing to come into contact with test areas.
After lotions dried for 30 minutes, each site was tape-stripped using a 4.0 inch piece of Scotch® Brand No. 800 Prescription Label tape (1.5 inches wide). […] The piece of tape was positioned over a site and then using a finger the tape was gently pressed onto the skin to make good contact. […]
Each tape extract was assayed for total LOOH content using a Lipid Hydroperoxide Assay Kit (Kamiya Biomedical Company, Thousand Oaks, Calif.) following manufacturer's directions. Lipid hydroperoxides were then quantitated by measuring methylene blue formation at 675 nm using a spectrophotometer. Standard curves were prepared using cumene hydroperoxide and were linear over the range of LOOH detected in these experiments. […]
The extent to which antioxidant (Aox) or placebo lotions inhibited UVR-induced lipid hydroperoxide (LOOH) formation was calculated by inserting the values of LOOH determined from the four application sites on each volunteer into the following equation: […]

For test [3], the system named is UV-induced ROS in EpiDerm™ Skin Model (human-derived epidermal keratinocytes). The experiment in a line: Two photon fluorescence microscopy on EpiDerm Skin Model (UV-induced ROS down to the basal layer). The format is cell-based. To be noted: result in words (FIG. 4). Here is the method: Two photon fluorescence microscopy was then conducted on a formulation containing Vitamin E and Emblica to determine ability to inhibit formation of ROS. The methods used were similar to those as described above, using confocal microscopy to visualize cells at different depths within intact pieces of skin and then fluorescence to quantify the extent of ROS formation. In the present experiment, however, instead of using human breast skin, the skin used was the EpiDerm™ Skin Model (MatTek Corporation, Mass. USA), which consists of normal, human-derived epidermal keratinocytes which have been cultured to form a multilayered, highly differentiated model of the human epidermis. […]
Prior to UVR exposure, pieces of EpiDerm™ skin were treated with dihydrorhodamine, which partitions throughout the aqueous and lipid regions of the tissue. […] The fluorescence is subsequently detected and quantified to provide an indication of the level of UV-induced ROS formed in deeper layers of the skin. By applying antioxidants topically before irradiation ROS formation can be measured and compared to the ROS formed after a placebo lotion without antioxidants was applied to the skin. In this way, the efficacy of antioxidants to neutralize ROS within deeper layers of the skin can be measured and their relative efficiencies established. […]

As for `Cc1c(C)c2c(c(C)c1O)CCC(C)(CCCC(C)CCCC(C)CCCC(C)C)O2` (stereo not drawn) [Vitamin E, dl alpha tocopherol], the “ARU (antioxidant reducing units)” value in test [1] (level 0.5% in methanol) is given as 6.5 ARU. In addition, the “% Inhibition of LOOH” value is reported as −3.40% in test [2] (0.05% in lotion), 28.4% in test [2] (0.10% in lotion) and 61.0% in test [2] (0.25% in lotion). In addition, the “protection of skin lipids against UVR-induced peroxidation (FIG. 1)” value in test [2] (result in words, FIG. 1) was “protects skin lipids in a dose dependant manner”.

In the case of `CC(=O)N[C@@H](CS)C(=O)O` [n-Acetyl cysteine], the “ARU (antioxidant reducing units)” value in test [1] (level 0.1% in methanol) came out at 9.9 ARU.

Take `C[N+](C)(C)[C@@H](Cc1c[nH]c(=S)[nH]1)C(=O)[O-]` [Ergothiotaine]: the “ARU (antioxidant reducing units)” value in test [1] (level 0.1% in methanol) was 0.0 ARU.

In the case of `CCCCC(CC)COC(=O)C(=Cc1cc(OC)c(O)c(OC)c1)C(=O)OCC(CC)CCCC` (stereo not shown) [Diethylhexyl syringylidene malonate], in test [1] (level 1.0% in methanol), the “ARU (antioxidant reducing units)” value worked out at 5.7 ARU. The “antioxidant or pro-oxidant behaviour within skin exposed to UVR” value in test [3] is reported as “maintains its antioxidant capability”.

In the case of `CC1(C)CC[C@]2(C(=O)O)CC[C@]3(C)C(=CC[C@@H]4[C@@]5(C)C[C@@H](O)[C@H](O)[C@@](C)(CO)[C@@H]5CC[C@]43C)[C@@H]2C1` [Arjunolic acid (1%), Arjunolic acid], in test [1] (level 1.0% in methanol), the “ARU (antioxidant reducing units)” value came to 0.4 ARU.

The record behind these values is patent publication US9096882B2, “Method of selecting antioxidants for use in topically applied compositions” (MSD Consumer Care, Inc., priority 2008, dated 2015).
